Data published in the supplement of paper PMC10307832.

What was measured:
Assay in all cases: relative viability (nuclei count vs DMSO), 5 days (fraction); higher = more cells survive
[1] = compound: CO[C@H]1C[C@@H]2CC[C@@H](C)[C@@](O)(O2)C(=O)C(=O)N2CCCC[C@H]2C(=O)O[C@H]([C@H](C)C[C@@H]2CC[C@@H](OCCO)[C@H](OC)C2)CC(=O)[C@H](C)/C=C(\C)[C@@H](O)[C@@H](OC)C(=O)[C@H](C)C[C@H](C)/C=C/C=C/C=C/1C [Everolimus] + CCNC(=O)c1noc(-c2cc(C(C)C)c(O)cc2O)c1-c1ccc(CN2CCOCC2)cc1 [Luminespib] (partner 0.01 µM)
In short: (§1)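 Dosing by pin tool came one day after lung cancer cell lines were seeded in 1536-well plates, using either one drug or a fixed anchor-drug dose plus five library-drug doses (not always all listed) in √10 steps. After 5 days, nuclei were counted on 4× images. Relative viability is treated-well nuclei count divided by vehicle-well nuclei count, and values are medians of duplicate plates.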

[2] = compound: CO[C@H]1C[C@@H]2CC[C@@H](C)[C@@](O)(O2)C(=O)C(=O)N2CCCC[C@H]2C(=O)O[C@H]([C@H](C)C[C@@H]2CC[C@@H](OCCO)[C@H](OC)C2)CC(=O)[C@H](C)/C=C(\C)[C@@H](O)[C@@H](OC)C(=O)[C@H](C)C[C@H](C)/C=C/C=C/C=C/1C [Everolimus] + Cc1cc(Nc2cc(N3CCN(C)CC3)nc(Sc3ccc(NC(=O)C4CC4)cc3)n2)n[nH]1 [Tozasertib] (partner 0.1 µM)
In short: as §1

[3] = compound: CO[C@H]1C[C@@H]2CC[C@@H](C)[C@@](O)(O2)C(=O)C(=O)N2CCCC[C@H]2C(=O)O[C@H]([C@H](C)C[C@@H]2CC[C@@H](OCCO)[C@H](OC)C2)CC(=O)[C@H](C)/C=C(\C)[C@@H](O)[C@@H](OC)C(=O)[C@H](C)C[C@H](C)/C=C/C=C/C=C/1C [Everolimus] + Cc1nc(NC(=O)N2CCC[C@H]2C(N)=O)sc1-c1ccnc(C(C)(C)C(F)(F)F)c1 [Alpelisib] (partner 2 µM)
In short: as §1

[4] = compound: CO[C@H]1C[C@@H]2CC[C@@H](C)[C@@](O)(O2)C(=O)C(=O)N2CCCC[C@H]2C(=O)O[C@H]([C@H](C)C[C@@H]2CC[C@@H](OCCO)[C@H](OC)C2)CC(=O)[C@H](C)/C=C(\C)[C@@H](O)[C@@H](OC)C(=O)[C@H](C)C[C@H](C)/C=C/C=C/C=C/1C [Everolimus] + Cc1nc(Nc2ncc(C(=O)Nc3c(C)cccc3Cl)s2)cc(N2CCN(CCO)CC2)n1 [Dasatinib] (partner 0.075 µM)
In short: as §1

Row | Cell Line | relative viability ([1]; first compound 0.01 µM) | relative viability ([1]; first compound 0.03162 µM) | relative viability ([1]; first compound 0.1 µM) | relative viability ([1]; first compound 0.3162 µM) | relative viability ([1]; first compound 1 µM) | relative viability ([2]; first compound 0.01 µM) | relative viability ([2]; first compound 0.03162 µM) | relative viability ([2]; first compound 0.1 µM) | relative viability ([2]; first compound 0.3162 µM) | relative viability ([2]; first compound 1 µM) | relative viability ([3]; first compound 0.01 µM) | relative viability ([3]; first compound 0.03162 µM) | relative viability ([3]; first compound 0.1 µM) | relative viability ([3]; first compound 0.3162 µM) | relative viability ([3]; first compound 1 µM) | relative viability ([4]; first compound 0.01 µM) | relative viability ([4]; first compound 0.03162 µM) | relative viability ([4]; first compound 0.1 µM) | relative viability ([4]; first compound 0.3162 µM) | relative viability ([4]; first compound 1 µM)
1 | NCI-H2009 | 0.832 | 0.866 | 0.77 | 0.852 | 0.72 | 0.576 | 0.65 | 0.545 | 0.612 | 0.491 | 0.763 | 0.741 | 0.791 | 0.846 | 0.906 | 0.214 | 0.218 | 0.225 | 0.244 | 0.215
2 | NCI-H2023 | 0.309 | 0.269 | 0.413 | 0.266 | 0.219 | 0.273 | 0.203 | 0.235 | 0.235 | 0.225 | 0.411 | 0.326 | 0.302 | 0.271 | 0.215 | 0.343 | 0.301 | 0.243 | 0.239 | 0.222
3 | NCI-H2085 | 0.258 | 0.28 | 0.349 | 0.319 | 0.304 | 0.81 | 0.723 | 0.602 | 0.656 | 0.557 | 0.668 | 0.616 | 0.577 | 0.622 | 0.571 | 0.237 | 0.232 | 0.254 | 0.215 | 0.234
4 | NCI-H2087 | 0.168 | 0.205 | 0.146 | 0.143 | 0.15 | 0.256 | 0.199 | 0.198 | 0.218 | 0.174 | 0.796 | 0.897 | 0.839 | 0.663 | 0.657 | 0.748 | 0.648 | 0.695 | 0.786 | 0.667
5 | NCI-H2126 | 0.532 | 0.457 | 0.42 | 0.564 | 0.381 | 0.64 | 0.609 | 0.52 | 0.637 | 0.568 | 0.509 | 0.466 | 0.435 | 0.473 | 0.458 | 0.422 | 0.423 | 0.35 | 0.467 | 0.373
6 | NCI-H2170 | 0.291 | 0.175 | 0.229 | 0.316 | 0.198 | 0.443 | 0.428 | 0.461 | 0.518 | 0.399 | 0.365 | 0.367 | 0.333 | 0.312 | 0.354 | 0.366 | 0.292 | 0.312 | 0.302 | 0.262
7 | NCI-H2228 | 0.114 | 0.185 | 0.145 | 0.131 | 0.115 | 0.23 | 0.244 | 0.271 | 0.211 | 0.137 | 0.463 | 0.431 | 0.418 | 0.385 | 0.266 | 0.335 | 0.394 | 0.246 | 0.271 | 0.253
8 | NCI-H2347 | 0.497 | 0.367 | 0.301 | 0.332 | 0.362 | 0.531 | 0.519 | 0.365 | 0.506 | 0.305 | 0.979 | 0.872 | 0.564 | 0.783 | 0.826 | 0.242 | 0.285 | 0.188 | 0.293 | 0.189
9 | NCI-H2405 | 0.657 | 0.548 | 0.523 | 0.52 | 0.484 | 0.832 | 0.729 | 0.717 | 0.762 | 0.657 | 0.452 | 0.475 | 0.372 | 0.444 | 0.469 | 0.207 | 0.211 | 0.183 | 0.182 | 0.209
10 | NCI-H3122 | 0.105 | 0.0862 | 0.0973 | 0.113 | 0.0788 | 0.417 | 0.517 | 0.421 | 0.439 | 0.363 | 0.587 | 0.549 | 0.325 | 0.59 | 0.363 | 0.584 | 0.0535 | 0.0826 | 0.0717 | 0.112
11 | PC-3 [JPC-3] | 0.466 | 0.517 | 0.493 | 0.372 | 0.474 | 0.927 | 0.806 | 0.849 | 0.868 | 0.873 | 0.881 | 0.828 | 0.793 | 0.789 | 0.747 | 0.93 | 0.77 | 0.797 | 0.669 | 0.675
12 | PC-14 | 0.175 | 0.171 | 0.145 | 0.171 | 0.191 | 0.592 | 0.673 | 0.499 | 0.417 | 0.424 | 0.796 | 0.661 | 0.62 | 0.589 | 0.476 | 0.23 | 0.168 | 0.216 | 0.237 | 0.177
13 | RERF-LC-KJ | 0.895 | 0.834 | 0.807 | 0.848 | 0.646 | 0.398 | 0.436 | 0.382 | 0.431 | 0.428 | 0.632 | 0.463 | 0.408 | 0.481 | 0.53 | 0.589 | 0.573 | 0.483 | 0.549 | 0.457
14 | SK-LU-1 | 0.183 | 0.147 | 0.174 | 0.164 | 0.168 | 0.285 | 0.262 | 0.24 | 0.241 | 0.289 | 0.46 | 0.471 | 0.565 | 0.555 | 0.661 | 0.16 | 0.166 | 0.177 | 0.176 | 0.188
15 | SK-MES-1 | 0.347 | 0.383 | 0.329 | 0.281 | 0.331 | 0.791 | 0.807 | 0.794 | 0.779 | 0.662 | 0.486 | 0.461 | – | 0.44 | 0.368 | 0.357 | 0.339 | 0.398 | 0.346 | 0.331
16 | SW 1573 | 0.172 | 0.181 | 0.359 | 0.215 | 0.216 | 0.16 | 0.172 | 0.13 | 0.157 | 0.132 | 0.449 | 0.374 | 0.441 | 0.334 | 0.346 | 0.259 | 0.353 | 0.207 | 0.244 | 0.215
17 | UMC-11 | 0.328 | 0.348 | 0.385 | 0.343 | 0.366 | 0.212 | 0.195 | 0.208 | 0.215 | 0.198 | 0.348 | 0.304 | 0.301 | 0.32 | 0.311 | 0.307 | 0.293 | 0.326 | 0.319 | 0.302
